Columns and labels:
MYT1 protein [1] = molecular target: T1, MYT1 protein (Homo sapiens (Human), UniProt Q99640); test: MYT1 kinase activity inhibition test (ELISA, phosphorylation of Y15 of CDK1); assay type: biochemical; conditions: phosphorylation level of Y15 of CDK1 protein caused by MYT1 protein, 60 minutes
Procedure: The MYT1 kinase activity inhibitory capacity of each compound was evaluated by evaluating the phosphorylation level of Y15 of CDK1 protein caused by MYT1 protein, by ELISA. The kit of CycLex Weel Kinase Assay/Inhibitor Screening Kit Ver. 3 (manufactured by MBL, CY-1172V3) was used. Using Kinase Buffer, 10 μL of 5 nM MYT1 protein (manufactured by Carna Biosciences, Inc.) was prepared. In addition, 30 μL of 83.3 μM of ATP was prepared using Kinase Buffer. In addition, 10 μL of each compound was diluted to each concentration using Kinase Buffer. 30 μL of ATP was added to the plate of the kit, and thereafter, 10 μL of each compound was added thereto. Further, 10 μL of the diluted MYT1 protein solution was added thereto, and then the mixture was mixed, which was allowed to stand at room temperature for 60 minutes. The reaction solution was removed from each well, and each well was washed using Wash Buffer. After Wash Buffer was removed, 100 μL of HRP conjugated Anti-phospho-tyrosine antibody was added to each well, which was allowed to stand at room temperature for 60 minutes. Thereafter, the reaction solution was removed from each well, and each well was washed using Wash Buffer. After Wash Buffer was removed, 100 μL of Substrate Reagent was added to each well, which was allowed to stand at room temperature for 8 minutes. Thereafter, 100 μL of Stop Solution (1 N sulfuric acid) was added to each well according to the manual. Absorbances at 450 nm and 590 nm were measured using Envision (manufactured by PerkinElmer). The phosphorylation level of CDK1 protein was evaluated for each well by subtracting the absorbance at 590 nm from the absorbance at 450 nm. The inhibition rate of each compound added at each concentration was calculated by setting the signal when the compound was not added as 100% and the signal when MYT1 protein was not added as 0%, and the calculation results of IC50 were shown in Table 4.

LU65 = test: Cytotoxicity test with pemetrexed upon addition of each example compound (CellTiter-Glo); assay type: cell-based, human; conditions: combination with pemetrexed, LU65 cells, 7 days; maximum value, at the MYT1 inhibitor and pemetrexed concentrations
Procedure: LU65 (received from human tissue bank (JCRB Cell Bank)) was used in the evaluation of the present invention. LU65 is a lung cancer cell line having a truncated deletion mutation of S82* in RB1 gene (see Nature. 2019 May; 569(7757): 503-508. (Non Patent Literature 22)), in which the function of RB1 is decreased. The cell culture was carried out using RPMI-1640 (manufactured by SIGMA) containing 10% FBS (manufactured by SIGMA).
Each pemetrexed (manufactured by Tokyo Kasei Kogyo Co., Ltd.) and each example compound of each concentration were diluted using a DMSO solution, and 0.04 μL of each of series of dilution and DMSO was added to each well of cell culture plate using Echo 555 Liquid Handler (manufactured by Beckman Coulter Inc.). 1000 LU65 cells ([…]) were added to each well, which was cultured at 37° C. in a 5% CO2 incubator for 7 days. Intracellular ATP level which is a cell survival marker was measured and used in the monitoring of cell number. After culturing, 20 μL of CellTiter-Glo (registered trademark) 2.0 (manufactured by Promega) was added to each well, and the emission intensity was measured using Multimode Plate Reader En Vision (registered trademark) Xcite (manufactured by PerkinElmer). The cell survival rate under each condition was calculated by setting the value obtained by subtracting the luminescence of the cell unseeded well from the luminescence of the DMSO-added well as 100%, and calculating the proportion of a value obtained by subtracting the luminescence of the cell unseeded well from the luminescence detected at each well.
In addition, the cytotoxic activity under each condition was calculated by subtracting the survival rate in a combination of pemetrexed of each treatment concentration and each example compound of each treatment concentration, from 100%.

MYT1 protein [2] = molecular target: T1, MYT1 protein; test: Test for binding to ATP binding site of MYT1 (Kinase Tracer 178 / Eu-Anti-GST antibody TR-FRET); conditions: ATP binding site of MYT1, 30 minutes at room temperature

T1 sequence (Q99640 whole entry): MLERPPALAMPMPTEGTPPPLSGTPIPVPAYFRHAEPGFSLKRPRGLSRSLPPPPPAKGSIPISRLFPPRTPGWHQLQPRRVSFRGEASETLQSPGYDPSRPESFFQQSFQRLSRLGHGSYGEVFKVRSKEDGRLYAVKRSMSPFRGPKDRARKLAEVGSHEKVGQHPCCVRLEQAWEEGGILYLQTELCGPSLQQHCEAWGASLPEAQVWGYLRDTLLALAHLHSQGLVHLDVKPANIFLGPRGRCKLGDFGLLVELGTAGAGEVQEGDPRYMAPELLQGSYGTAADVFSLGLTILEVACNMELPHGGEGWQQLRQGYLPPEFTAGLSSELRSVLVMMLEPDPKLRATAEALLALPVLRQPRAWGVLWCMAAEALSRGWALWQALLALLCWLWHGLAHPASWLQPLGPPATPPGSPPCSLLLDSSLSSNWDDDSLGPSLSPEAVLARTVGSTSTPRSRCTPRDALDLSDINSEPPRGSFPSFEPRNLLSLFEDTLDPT

Row | Structure (SMILES) | IC50 (MYT1 protein [1]) [nM] | IC50 (MYT1 protein [2]) [nM] | Bliss Score (Max) (LU65) [%] | HSA Score (MAX) (LU65) [%]
1 | Nc1c(-c2ccc(F)c3[nH]ncc23)c2ccc3ncccc3c2[nH]c1=O [Compound C83, 3-Amino-4-(7-fluoro-1H-indazol-4-yl)-1H-1,7-phenanthrolin-2-one] | 0.2 | 2.4 | 54 | 66
2 | Nc1c(-c2ccc(F)c3[nH]ncc23)c2cc(C3CCCC3)c3ncccc3c2[nH]c1=O [Compound C92, 3-Amino-6-cyclopentyl-4-(7-fluoro-1H-indazol-4-yl)-1H-1,7-phenanthrolin-2-one] | 1.7 | 19 | 56 | 68
3 | Nc1c(-c2ccc(F)c3[nH]ncc23)c2cc(C3CCOCC3)c3ncccc3c2[nH]c1=O [Compound C98, 3-Amino-4-(7-fluoro-1H-indazol-4-yl)-6-(oxan-4-yl)-1H-1,7-phenanthrolin-2-one] | < 4.6 | 2.8 | 46 | 53
4 | Nc1c(-c2ccc(F)c3[nH]ncc23)c2cc(C3CCC4(CC3)OCCO4)c3ncccc3c2[nH]c1=O.O=C(O)C(F)(F)F [Compound C101, 3-Amino-6-(1,4-dioxaspiro[4.5]decan-8-yl)-4-(7-fluoro-1H-indazol-4-yl)-1H-1,7-phenanthrolin-2-one 2,2,2-trifluoroacetate] | 7.1 | 6.1 | 46 | 64
5 | Nc1c(-c2ccc(F)c3[nH]ncc23)c2cc(C3CCN(C4CCC4)CC3)c3ncccc3c2[nH]c1=O [Compound C134, 3-Amino-6-(1-cyclobutylpiperidin-4-yl)-4-(7-fluoro-1H-indazol-4-yl)-1H-1,7-phenanthrolin-2-one] | 7.6 | 3.6 | 49 | 60
6 | Nc1c(-c2ccc(F)c3[nH]ncc23)c2cc(C3CCN(C4COC4)CC3)c3ncccc3c2[nH]c1=O [Compound C135, 3-Amino-4-(7-fluoro-1H-indazol-4-yl)-6-[1-(oxetan-3-yl)piperidin-4-yl]-1H-1,7-phenanthrolin-2-one] | < 4.6 | 2.3 | 48 | 58
7 | CC(C)N1CCC(c2cc3c(-c4ccc(F)c5[nH]ncc45)c(N)c(=O)[nH]c3c3cccnc23)CC1.O=CO [Compound C136, 3-Amino-4-(7-fluoro-1H-indazol-4-yl)-6-(1-propan-2-ylpiperidin-4-yl)-1H-1,7-phenanthrolin-2-one; formate] | 8.3 | 3.4 | 45 | 57
8 | Nc1c(-c2ccc(F)c3[nH]ncc23)c2cc(C3CCN(C4CCOCC4)CC3)c3ncccc3c2[nH]c1=O [Compound C137, 3-Amino-4-(7-fluoro-1H-indazol-4-yl)-6-[1-(oxan-4-yl)piperidin-4-yl]-1H-1,7-phenanthrolin-2-one] | 7.7 | 4.7 | 45 | 56
9 | CN1CCC(c2cc3c(-c4ccc(F)c5[nH]ncc45)c(N)c(=O)[nH]c3c3cccnc23)CC1 [Compound C138, 3-Amino-4-(7-fluoro-1H-indazol-4-yl)-6-(1-methylpiperidin-4-yl)-1H-1,7-phenanthrolin-2-one] | < 4.6 | 2 | 73 | 73

Now from value to molecule, other results behind:

Row | IC50 (MYT1 protein [1]) [nM] | IC50 (MYT1 protein [2]) [nM] | Structure (SMILES) | Bliss Score (Max) (LU65) [%] | HSA Score (MAX) (LU65) [%]
10 | 0.1 | 2.4 | CCOc1cc2c(-c3cc(F)c(F)c4[nH]ncc34)c(N)c(=O)[nH]c2c2cccnc12 [Compound C67, 3-Amino-4-(6,7-difluoro-1H-indazol-4-yl)-6-ethoxy-1H-1,7-phenanthrolin-2-one] | 77 | 79
11 | 0.1 | 2 | CC(C)Oc1cc2c(-c3cc(F)c(F)c4[nH]ncc34)c(N)c(=O)[nH]c2c2cccnc12 [Compound C69, 3-Amino-4-(6,7-difluoro-1H-indazol-4-yl)-6-propan-2-yloxy-1H-1,7-phenanthrolin-2-one] | 66 | 69
12 | 0.092 | 1.5 | COc1cc2c(-c3cc(F)c(Cl)c4[nH]ncc34)c(N)c(=O)[nH]c2c2cccnc12 [Compound C76, 3-Amino-4-(7-chloro-6-fluoro-1H-indazol-4-yl)-6-methoxy-1H-1,7-phenanthrolin-2-one] | 68 | 67
13 | < 0.17 | 3.1 | Nc1c(-c2ccc(F)c3[nH]ncc23)c2cc(Cl)c3ncccc3c2[nH]c1=O [Compound C78, 3-Amino-6-chloro-4-(7-fluoro-1H-indazol-4-yl)-1H-1,7-phenanthrolin-2-one] | 53 | 66
14 | 0.25 | 2.3 | Nc1c(-c2ccc(F)c3[nH]ncc23)c2cc(C3CC3)c3ncccc3c2[nH]c1=O [Compound C84, 3-amino-6-cyclopropyl-4-(7-fluoro-1H-indazol-4-yl)-1H-1,7-phenanthrolin-2-one] | 68 | 70
15 | 0.19 | 2.5 | Cc1cc2c(-c3ccc(F)c4[nH]ncc34)c(N)c(=O)[nH]c2c2cccnc12 [Compound C85, 3-amino-4-(7-fluoro-1H-indazol-4-yl)-6-methyl-1H-1,7-phenanthrolin-2-one] | 59 | 58
16 | < 0.17 | 4.6 | CCc1cc2c(-c3ccc(F)c4[nH]ncc34)c(N)c(=O)[nH]c2c2cccnc12 [Compound C86, 3-Amino-6-ethyl-4-(7-fluoro-1H-indazol-4-yl)-1H-1,7-phenanthrolin-2-one] | 67 | 71
17 | < 0.17 | 4.4 | Cn1cc(-c2cc3c(-c4ccc(F)c5[nH]ncc45)c(N)c(=O)[nH]c3c3cccnc23)cn1 [Compound C88, 3-Amino-4-(7-fluoro-1H-indazol-4-yl)-6-(1-methylpyrazol-4-yl)-1H-1,7-phenanthrolin-2-one] | 53 | 61
18 | 0.42 | 14 | CC#Cc1cc2c(-c3ccc(F)c4[nH]ncc34)c(N)c(=O)[nH]c2c2cccnc12 [Compound C90, 3-Amino-4-(7-fluoro-1H-indazol-4-yl)-6-prop-1-inyl-1H-1,7-phenanthrolin-2-one] | 50 | 60
19 | 1.1 | 10 | Nc1c(-c2ccc(F)c3[nH]ncc23)c2cc(C3CCC3)c3ncccc3c2[nH]c1=O [Compound C91, 3-Amino-6-cyclobutyl-4-(7-fluoro-1H-indazol-4-yl)-1H-1,7-phenanthrolin-2-one] | 59 | 61
20 | 5.5 | 1.5 | Nc1c(-c2ccc(F)c3[nH]ncc23)c2cc(/C=C/CCO)c3ncccc3c2[nH]c1=O [Compound C100, 3-Amino-4-(7-fluoro-1H-indazol-4-yl)-6-[(E)-4-hydroxybut-1-enyl]-1H-1,7-phenanthrolin-2-one] | 46 | 50
21 | < 4.6 | 3.8 | CC(C)(O)C#Cc1cc2c(-c3ccc(F)c4[nH]ncc34)c(N)c(=O)[nH]c2c2cccnc12 [Compound C102, 3-Amino-4-(7-fluoro-1H-indazol-4-yl)-6-(3-hydroxy-3-methylbut-1-inyl)-1H-1,7-phenanthrolin-2-one] | 36 | 49

Reference: patent US20260062412A1, “NITROGEN-CONTAINING HETEROCYCLIC COMPOUND HAVING MYT1 INHIBITORY ACTIVITY” (CHUGAI SEIYAKU KABUSHIKI KAISHA, priority 2023, published 2026)
